Values of other authors in patent publication US20210353574A1, “Softgels with solid or gel-like polymeric fill matrix” (Bayer HealthCare LLC, priority 2018, published 2021).

Settings: used as an analgesic

SMILES	minimum effective dose [mg]
COc1ccc2cc([C@H](C)C(=O)O)ccc2c1 [Naproxen]	200
COc1ccc2cc([C@H](C)C(=O)O)ccc2c1 [naproxen sodium]	220
